Data from patent US11273172B2, “Synergistic combination of oligonucleotides and chemotherapeutic for treating cancer” (THE BOARD OF TRUSTEES OF THE UNIVERSITY OF ILLINOIS, priority 2017, dated 2022).

Columns and labels:
Test in all cases: MTT cell death assay, chemotherapeutic with and without MADD siRNA knockdown
Assay type in all cases: cell-based
[1] = system: AGS gastric adenocarcinoma cells; settings: siRNA 10 nM
Description: (§1) Cells are cultured and maintained at 37° C. in a humidified atmosphere containing 5% CO2 as described above. […] After 12-18 hours (Day 1), cells are transfected with Scramble or MADD siRNA at 10 nM concentration. The sequences of siRNAs (double-stranded) used are:
(§2) On Day 4, when cells are properly adhered and retained their shape in 96-well plates, drugs are added. All drugs are diluted in complete media on the same day prior to the addition to the cells. In untreated cells, media is replaced with complete media. Two hundred μl volume of media (with or without drugs) is used for the drug treatment assay. Plates are incubated 24 hours, 48 hours and 72 hours at 37° C. in humidified CO2 incubator.
(§3) An MTT assay is performed to determine relative survival after drug treatment as described above. MTT (3-[4,5-Dimethylthiazol-2-yl]-2,5-diphenyltetrazolium bromide; Thiazolyl blue) is purchased from Sigma Aldrich (Cat number: M5655). […] Ten μl of MTT solution is added per well of 96-well plate. Plates are incubated for 2 hours at 37° C. in the humidified CO2 incubator. After 2 hours, media is aspirated using vacuum inside the biosafety hood. Purple colored crystals formed in viable cells are dissolved by adding 100 μl of Dimethyl sulfoxide (Thermo Fisher Scientific; Cat number D128-500) Plates are kept on shaker for 10 minutes for compete dissolution of crystals and absorbance is recorded at 595 nm using Bio-Rad iMark microplate reader. Data is analyzed in MICROSOFT EXCEL® software. Relative survival is calculated with respect to absorbance of control (untreated cells) to determine the effect of transfection as well as combination treatment.
(§4) Each data set takes into account any spontaneous cell death which is observed upon transfection with Scramble siRNA; the amount of spontaneous cell death from Scramble siRNA transfection (baseline) is subtracted from the amount of cell death observed in each siRNA transfection reaction to yield a Net Percent (Net %) cell death after accounting for Scrambled siRNA-induced cell death.
(§5) Cells are cultured and maintained at 37° C. in a humidified atmosphere containing 5% CO2 as described above. […] After 12-18 hours (Day 1), cells are transfected with Scramble or MADD siRNA at 10 nM concentration. The sequences of siRNAs (double stranded) used are:
as §3, with “D128-500).” for “D128-500)”
as §2, with “24 h,” for “24 hours,”, “48 h” for “48 hours”

[2] = system: 8505C thyroid cancer cells; settings: 8505C; Cisplatin 2.5 μM; siRNA 10 nM; 48 hours post Cisplatin treatment
Description: as §5
as §2, with “24 h,” for “24 hours,”, “48 h” for “48 hours”
as §3, §4, §2

[3] = system: HTH7 thyroid cancer cells; settings: siRNA 10 nM
Description: as §5, §2, §3, §4

[4] = system: PLC/PRF/5 hepatic cancer cells; settings: siRNA 10 nM
Description: as §1, §2, §3, §4, §5
as §3, with “D128-500).” for “D128-500)”
as §2, with “24 h,” for “24 hours,”, “48 h” for “48 hours”

[5] = system: JIMT1 breast cancer cells; settings: Doxorubicin 0.075 μM, siRNA 10 nM, 24 hours post Doxorubicin treatment
Description: (§6) Cells are cultured and maintained at 37° C. in a humidified atmosphere containing 5% CO2 as described above. On Day 0, Cells are seeded in […] tissue culture dishes (Corning; Cat Number: 353003) to attain 60-70% confluence. In parallel, cells are also seeded in one 96-well plate (Corning; Cat number: 353072) for analysis of survival before reseeding. After 12-18 hours (Day 1), cells are transfected with Scramble or MADD siRNA at 10 nM concentration. The sequences of siRNAs (double stranded) used are:
as §2, with “added. Doxorubicin was added at a working concentration of 5.0 nM, 9.375 nM, 0.075 μM, 0.25 μM, 0.5 μM, and 0.8 μM.” for “added.”
(§7) An MTT assay is performed to determine relative survival after drug treatment as described above. MTT (3-[4,5-Dimethylthiazol-2-yl]-2,5-diphenyltetrazolium bromide; Thiazolyl blue) is purchased from Sigma Aldrich (Cat number: M5655). MTT is dissolved in sterile DPBS at the concentration of 5 mg/ml and filtered through […] syringe filter (Corning; Cat number: 431220). Ten μl of MTT solution is added per well of 96-well plate. Plates are incubated for 2 hours at 37° C. in the humidified CO2 incubator. After 2 hours, media is aspirated using vacuum inside the biosafety hood. Purple colored crystals formed in viable cells are dissolved by adding 100 μl of Dimethyl sulfoxide (Thermo Fisher Scientific; Cat number D128-500). Plates are kept on shaker for 10 minutes for compete dissolution of crystals and absorbance is recorded at 595 nm using Bio-Rad iMark microplate reader. Data is analyzed in MICROSOFT EXCEL® software. Relative survival is calculated with respect to absorbance of control (untreated cells) to determine the effect of transfection as well as combination treatment.
as §4

[6] = system: N87 gastric carcinoma cells; settings: Doxorubicin 0.8 μM, siRNA 10 nM, 72 hours post Doxorubicin treatment
Description: as §6
as §2, with “added. Doxorubicin was added at a working concentration of 5.0 nM, 9.375 nM, 0.075 μM, 0.25 μM, 0.5 μM, and 0.8 μM.” for “added.”
as §7, §4

[7] = system: H2227 lung cancer cells; settings: siRNA 10 nM
Description: as §6, with “(double-stranded)” for “(double stranded)”
as §2
as §7, with “D128-500)” for “D128-500).”
as §4, §6
as §2, with “added. Doxorubicin was added at a working concentration of 5.0 nM, 9.375 nM, 0.075 μM, 0.25 μM, 0.5 μM, and 0.8 μM.” for “added.”
(§8) An MTT assay is performed to determine relative survival after drug treatment as described above. MTT (3-[4,5-Dimethylthiazol-2-yl]-2,5-diphenyltetrazolium bromide; Thiazolyl blue) is purchased from Sigma Aldrich (Cat number: M5655). MTT is dissolved in sterile DPBS at the concentration of 5 mg/ml and filtered through […] syringe filter (Corning; Cat number: 431220). Ten μl of MTT solution is added per well of 96-well plate. Plates are incubated for 2 hours at 37° C. in the humidified CO2 incubator. […]

[8] = system: SU.86.86 pancreatic cancer cells; settings: Doxorubicin 5 nM, siRNA 10 nM, 24 hours post Doxorubicin treatment
Description: as §6, with “(double-stranded)” for “(double stranded)”
as §2
as §7, with “D128-500)” for “D128-500).”
as §4, §6
as §2, with “added. Doxorubicin was added at a working concentration of 5.0 nM, 9.375 nM, 0.075 μM, 0.25 μM, 0.5 μM, and 0.8 μM.” for “added.”
as §8

[9] = system: K562 chronic myelogenous leukemia cells; settings: siRNA 10 nM
Description: as §6, with “(double-stranded)” for “(double stranded)”
as §2
as §7, with “D128-500)” for “D128-500).”
as §4, §6
as §2, with “added. Doxorubicin was added at a working concentration of 5.0 nM, 9.375 nM, 0.075 μM, 0.25 μM, 0.5 μM, and 0.8 μM.” for “added.”
as §8

[10] = system: H522 lung cancer cells; settings: Gemcitabine 8.2 nM, siRNA 10 nM, 48 hours post Gemcitabine treatment
Description: as §6, with “(double-stranded)” for “(double stranded)”
as §2
as §7, with “D128-500)” for “D128-500).”
as §4, §6
as §7, with “Relative survival is calculated with respect to absorbance of control (untreated cells) to determine the effect of transfection as well as combination treatment.” left out

[11] = system: OVCAR3 ovarian cancer cells; settings: siRNA 10 nM
Description: as §6, with “(double-stranded)” for “(double stranded)”
as §2
as §7, with “D128-500)” for “D128-500).”
as §4, §6
as §7, with “Relative survival is calculated with respect to absorbance of control (untreated cells) to determine the effect of transfection as well as combination treatment.” left out

[12] = 5-flurouracil 25 μM, 72 hours post 5-flurouracil treatment
[13] = Cisplatin 1.25 μM, 72 hours post Cisplatin treatment
[14] = Cisplatin 5 μM, 24 hours post Cisplatin treatment
[15] = Cisplatin 1.875 μM, 24 hours post Cisplatin treatment
[16] = Doxorubicin 9.375 nM, 48 hours post Doxorubicin treatment
[17] = Doxorubicin 0.25 μM, 72 hours post Doxorubicin treatment
[18] = Doxorubicin 0.5 μM, 48 hours post Doxorubicin treatment
[19] = Gemcitabine 25 nM, 48 hours post Gemcitabine treatment
[20] = Gemcitabine 0.1 μM, 48 hours post Gemcitabine treatment
[21] = Gemcitabine 1 μM, 48 hours post Gemcitabine treatment
[22] = Gemcitabine 0.03125 μM, 24 hours post Gemcitabine treatment

## O=c1[nH]cc(F)c(=O)[nH]1 [5-flurouracil]
[1]; [12]
  Net % cell death after accounting for Scrambled siRNA: 22%
  Observed % Cell death: 22%

## N.N.[Cl][Pt][Cl] [Cisplatin]
[2]
  Net % cell death after accounting for Scrambled siRNA: 19%
  Observed % Cell death: 19%
[3]; [13]
  Net % cell death after accounting for Scrambled siRNA: 0%
  Observed % Cell death: 0%
[3]; [14]
  Net % cell death after accounting for Scrambled siRNA: 13%
  Observed % Cell death: 13%
[4]; [15]
  Net % cell death after accounting for Scrambled siRNA: 41%
  Observed % Cell death: 41%

## COc1cccc2c1C(=O)c1c(O)c3c(c(O)c1C2=O)C[C@@](O)(C(=O)CO)C[C@@H]3O[C@H]1C[C@H](N)[C@H](O)[C@H](C)O1 [Doxorubicin]
[5]
  Net % cell death after accounting for Scrambled siRNA: 17%
  Observed % Cell death: 17%
[6]
  Net % cell death after accounting for Scrambled siRNA: 38%
  Observed % Cell death: 38%
[7]; [16]
  Net % cell death after accounting for Scrambled siRNA: 3%
  Observed % Cell death: 3%
[8]
  Net % cell death after accounting for Scrambled siRNA: 36%
  Observed % Cell death: 36%
[9]; [17]
  Net % cell death after accounting for Scrambled siRNA: 11%
  Observed % Cell death: 11%
[9]; [18]
  Net % cell death after accounting for Scrambled siRNA: 0%
  Observed % Cell death: 0%

## Nc1ccn([C@@H]2O[C@H](CO)[C@@H](O)C2(F)F)c(=O)n1 [Gemcitabine]
[7]; [19]
  Net % cell death after accounting for Scrambled siRNA: 15%
  Observed % Cell death: 15%
[10]
  Net % cell death after accounting for Scrambled siRNA: 4%
  Observed % Cell death: 4%
[11]; Gemcitabine 0.0125 μM, 72 hours post Gemcitabine treatment
  Observed % Cell death: 19%
[11]; [20]
  Net % cell death after accounting for Scrambled siRNA: 28%
  Observed % Cell death: 28%
[1]; [21]
  Net % cell death after accounting for Scrambled siRNA: 38%
  Observed % Cell death: 38%
[4]; [22]
  Net % cell death after accounting for Scrambled siRNA: 1%
  Observed % Cell death: 1%
